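1) Cells in 96-well plates. 2) Compound, 48 h, 5 concentrations. 3) Linear interpolation between surrounding doses. 4) Unreached endpoint = highest concentration. Abbreviation: GI50, concentration required for 50% inhibition of growth.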 Calls of active or inactive are those of the source. Cut-off read from the data, not from the text of the source: active = GI50 up to about 1.1 µM and inactive = higher.
How the values were obtained:
Test in all cases: DTP human tumour cell line panel, 48 h
[1] = tested on: A498
[2] = tested on: A549
[3] = tested on: COLO 205
[4] = tested on: HOP-92
[5] = tested on: HT-29
[6] = tested on: Hs-578T
[7] = tested on: K562
[8] = tested on: MCF7
[9] = tested on: MOLT-4
[10] = tested on: Malme-3M
[11] = tested on: NCI-H522
[12] = tested on: NCI/ADR-RES
[13] = tested on: OVCAR-3
[14] = tested on: OVCAR-4
[15] = tested on: OVCAR-5
[16] = tested on: PC-3
[17] = tested on: SN12C
[18] = tested on: UACC-257
[19] = tested on: UACC-62
[20] = tested on: UO-31

| SMILES | GI50 [1] | GI50 [2] | GI50 [3] | GI50 [4] | GI50 [5] | GI50 [6] | GI50 [7] | GI50 [8] | GI50 [9] | GI50 [10] | GI50 [11] | GI50 [12] | GI50 [13] | GI50 [14] | GI50 [15] | GI50 [16] | GI50 [17] | GI50 [18] | GI50 [19] | GI50 [20] |
| --- | --- | --- | --- | --- | --- | --- | --- | --- | --- | --- | --- | --- | --- | --- | --- | --- | --- | --- | --- | --- |
| CC1(C)C(N2CCOCC2)CS1(=O)=O (centres undefined) | > 10 µM (inactive) | > 10 µM (inactive) | > 10 µM (inactive) | > 10 µM (inactive) | > 10 µM (inactive) | > 10 µM (inactive) | > 10 µM (inactive) | > 10 µM (inactive) | > 10 µM (inactive) | > 10 µM (inactive) | > 10 µM (inactive) | > 10 µM (inactive) | > 10 µM (inactive) | > 10 µM (inactive) | > 10 µM (inactive) | > 10 µM (inactive) | > 10 µM (inactive) | > 10 µM (inactive) | > 10 µM (inactive) | > 10 µM (inactive) |
| O=C(O)c1nc2cc(C(F)(F)F)ccc2[nH]c1=O | > 100 µM (inactive) | > 100 µM (inactive) | > 100 µM (inactive) | > 100 µM (inactive) | > 100 µM (inactive) | > 100 µM (inactive) | > 100 µM (inactive) | > 100 µM (inactive) | > 100 µM (inactive) | > 100 µM (inactive) | > 100 µM (inactive) | > 100 µM (inactive) | > 100 µM (inactive) | > 100 µM (inactive) | > 100 µM (inactive) | > 100 µM (inactive) | > 100 µM (inactive) | > 100 µM (inactive) | > 100 µM (inactive) | 60.8 µM (inactive) |
| CCOC(=O)/C(C(=S)Nc1ccccc1)=C(/N)N1CCCC1 | > 100 µM (inactive) | > 100 µM (inactive) | > 100 µM (inactive) | 2.1 µM (inactive) | > 100 µM (inactive) | 77.4 µM (inactive) | 37 µM (inactive) | 54.1 µM (inactive) | > 100 µM (inactive) | > 100 µM (inactive) | > 100 µM (inactive) | > 100 µM (inactive) | > 100 µM (inactive) | > 100 µM (inactive) | > 100 µM (inactive) | 38.9 µM (inactive) | > 100 µM (inactive) | > 100 µM (inactive) | > 100 µM (inactive) | > 100 µM (inactive) |
| C/C(=N\NC(N)=S)c1ccccn1.OB(O)c1ccccc1 | 5.89 µM (inactive) | 5.51 µM (inactive) | 3.85 µM (inactive) | 10.4 µM (inactive) | 6.47 µM (inactive) | > 100 µM (inactive) | 3.61 µM (inactive) | 4.55 µM (inactive) | 2.07 µM (inactive) | 8.63 µM (inactive) | 1.8 µM (inactive) | 3.7 µM (inactive) | 2.62 µM (inactive) | 4.25 µM (inactive) | 6.05 µM (inactive) | 4.15 µM (inactive) | 3.52 µM (inactive) | 4.47 µM (inactive) | 3.25 µM (inactive) | 2.39 µM (inactive) |
| O=C1CCCc2cc3c(cc21)CC1(C3)Cc2cc3c(cc2C1)C(=O)CCC3 | 5.45 µM (inactive) | 1.39 µM (inactive) | 1.33 µM (inactive) | 6.78 µM (inactive) | 0.743 µM (active) | 2.64 µM (inactive) | 0.396 µM (active) | 0.484 µM (active) | 1 µM (active) | 0.798 µM (active) | 0.679 µM (active) | 0.769 µM (active) | 1.57 µM (inactive) | 4.43 µM (inactive) | 4.54 µM (inactive) | 1.24 µM (inactive) | 4.46 µM (inactive) | 2.28 µM (inactive) | 0.531 µM (active) | 5.55 µM (inactive) |
| Cc1cc(OCc2nnc3sc(NC(=O)c4ccccc4)nn23)ccc1Cl | 27.2 µM (inactive) | 33.1 µM (inactive) | 53.5 µM (inactive) | 17.4 µM (inactive) | 38.4 µM (inactive) | 32.1 µM (inactive) | 94.2 µM (inactive) | 30.3 µM (inactive) | 55.5 µM (inactive) | 21.4 µM (inactive) | 30.6 µM (inactive) | 37 µM (inactive) | 30.7 µM (inactive) | > 100 µM (inactive) | 56.8 µM (inactive) | 33.7 µM (inactive) | 30.8 µM (inactive) | 37.7 µM (inactive) | 33.3 µM (inactive) | 19 µM (inactive) |
| O=C1OC(CCCN2CCCCC2)(c2ccccc2)CC12CCCC2 (centres undefined) | 57.4 µM (inactive) | > 100 µM (inactive) | 32.3 µM (inactive) | 2.1 µM (inactive) | 37.3 µM (inactive) | 63.1 µM (inactive) | 40.5 µM (inactive) | 58.2 µM (inactive) | 40 µM (inactive) | 35.6 µM (inactive) | > 100 µM (inactive) | > 100 µM (inactive) | > 100 µM (inactive) | 97.9 µM (inactive) | > 87.1 µM (inactive) | > 100 µM (inactive) | > 100 µM (inactive) | 23.1 µM (inactive) | 61.4 µM (inactive) | 73.1 µM (inactive) |
| O=C1c2c(F)c(F)c(F)c(F)c2SC2=NCCN12 | 18.4 µM (inactive) | 14.7 µM (inactive) | 7.23 µM (inactive) | 3.78 µM (inactive) | 3.18 µM (inactive) | 14.2 µM (inactive) | 2.1 µM (inactive) | 8.15 µM (inactive) | 2.24 µM (inactive) | 5.65 µM (inactive) | 2.82 µM (inactive) | 10.4 µM (inactive) | 4.91 µM (inactive) | 3.12 µM (inactive) | 15.4 µM (inactive) | 13.6 µM (inactive) | 9.25 µM (inactive) | 8.57 µM (inactive) | 5.04 µM (inactive) | 10.1 µM (inactive) |
| CCOC(=O)C(=O)C(CCC(=O)c1ccc2ccccc2c1O)C(=O)OCC (centres undefined) | > 100 µM (inactive) | > 100 µM (inactive) | > 100 µM (inactive) | > 100 µM (inactive) | > 100 µM (inactive) | > 100 µM (inactive) | > 100 µM (inactive) | > 100 µM (inactive) | > 100 µM (inactive) | > 100 µM (inactive) | > 100 µM (inactive) | > 100 µM (inactive) | > 100 µM (inactive) | > 100 µM (inactive) | > 100 µM (inactive) | > 100 µM (inactive) | > 100 µM (inactive) | > 100 µM (inactive) | > 100 µM (inactive) | > 100 µM (inactive) |
| O=c1[nH]c(=O)n(C2CC(O)C(CO)O2)c2nc3cc4ccccc4cc3nc12 (centres undefined) | > 100 µM (inactive) | > 100 µM (inactive) | > 100 µM (inactive) | 79.1 µM (inactive) | – | > 100 µM (inactive) | > 100 µM (inactive) | > 100 µM (inactive) | 61.7 µM (inactive) | > 100 µM (inactive) | > 100 µM (inactive) | > 100 µM (inactive) | > 100 µM (inactive) | > 100 µM (inactive) | > 100 µM (inactive) | > 100 µM (inactive) | > 100 µM (inactive) | > 100 µM (inactive) | > 100 µM (inactive) | > 100 µM (inactive) |
